Values of other authors, collected in patent publication US20110281813A1, “METHOD OF TREATING C-KIT POSITIVE RELAPSED ACUTE MYELOID LEUKEMIA” (priority 2008, published 2011).
Where a name gives a salt, the structure may show the parent alone.

Tested on: relapsed/ refractory AML

SMILES: Cc1ccc(NC(=O)c2ccc(CN3CCN(C)CC3)cc2)cc1Nc1nccc(-c2cccnc2)n1 [Imatinib mesylate, 4-(4-methylpiperazin-1-ylmethyl)-N-[4-methyl-3-(4-(pyridin-3-yl)pyrimidin-2-ylamino)phenyl]-benzamide]
- single agent activity: has single agent activity
